Values after ≈ are worked out from the molar mass of the structure shown.
Assays:
[1] = tested on: MRSA ATCC 700787; assay: Minimal bactericidal concentration (MBC); format: cell-based, Staphylococcus aureus
Protocol: Minimal Bactericidal Concentration (MBC) Determination
The MBC test is an extension of the MIC examination. MBC was determined by performing subcultures on antibiotic-free agar from both the well where there was no visible growth at the MIC of a tested antibiotic and from the positive control well (with inoculum but without compounds). The plates were incubated at 37° C. for 18-24 hours. The MBC was taken as the lowest concentration of the test compound that results in more than 99.9% reduction of viable bacteria. If MBC was one or two dilutions above a given MIC value (MBC/MIC ratio was less than or equal to four), the antibiotic was considered bactericidal against the test organism.

[2] = tested on: MRSA ATCC 700787; assay: In vivo efficacy, intraperitoneal MRSA infection; parameters: species or system mice; details: peritoneal fluid, 24 hours post-inoculation, single dose 20 mgkg^−1 IP
Protocol: In Vivo Efficacy of r6,N-Acyl-Glc Tei Analogs
Female C57BL/6 mice (6 weeks of age; about 16-19 g, 3-5 mice per group) were intraperitoneally inoculated with 300 μL of MRSA ATCC 700787 suspension (about 10^7 CFUmL^−1). For intranasal A. baumannii (ATCC 19606) inoculation, mice were anesthetized, and inoculated intranasally with about 10^7-10^8 CFUmL^−1 A. baumannii in 50 μL of PBS. Treatments were started 1 hour after the bacterial challenge. The dose administration to mice was set as follows: teicoplanin (1) or r6,C8-Tei analog (14) 20 mgkg^−1 was intraperitoneally injected to MRSA-infected mice; amikacin (15 mgkg^−1), teicoplanin (1) (30 mgkg^−1), kanamycin (30 mgkg^−1) or r1,Me2-r6,guanidino-C8 analog (24) (30 mgkg^−1) was intraperitoneally injected to AB-infected mice. To assess bacteraemia, the test animals were sacrificed to collect 1 mL of peritoneal fluid (PF) for MRSA counting or the lungs were lavaged to collect 0.6 mL bronchoalveolar lavage (BAL) fluid for A. baumannii counting.
For MRSA, mice were inoculated intraperitoneally (IP) with 0.3 mL of MRSA ATCC 700787 suspension (about 10^7 CFUmL^−1). […] For the saline treated control, bacterial count was calculated (about 7.5 log CFUmL^−1, FIG. 4A). […]

[3] = tested on: HEK293T cells; assay: Alamar Blue cell viability assay; format: cell-based, human; details: up to 100 μgmL^−1; 2 and 24 h
Protocol: The Alamar Blue (AB) assay, which includes a redox indicator that changes color or emits fluorescence in response to a metabolic activity, was used to assess in vitro mammalian cell cytotoxicity (human embryonic kidney cells (HEK293T)) upon an antibiotic treatment. 2×10^5 cellsmL^−1 were allowed to adhere on 96-well plates overnight at 37° C. in a humidified incubator (5% CO2 atmosphere). Tested compounds were dissolved in 50% DMSO to make 1 mgmL^−1 of a stock solution. Cells were separately aliquoted with 5 μL of a test compound (final concentration: 100 μgmL^−1) and incubated. PBS and 50% DMSO, which was used to dissolve compounds, served as a control. Cell viability was triplicated and assessed at 2 and 24 hour time points for each test compound, on which the measurements followed the manufacturer protocol.

[4] = tested on: MRSA ATCC 43300; assay: MIC, broth microdilution; format: cell-based, Staphylococcus aureus; details: MRSA ATCC 43300
Outline: (§1)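 Step one, pick colonies from 18-24 h agar plates into broth until 0.5 McFarland turbidity; step two, dilute to approximately 1×10^8 CFU mL^−1; step three, incubate at 37° C for 18-24 h and score visible growth.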

[5] = tested on: E. faecalis ATCC 29302; assay: MIC, broth microdilution; format: cell-based; details: EF ATCC 29302
Outline: as §1

- MIC [4]: 0.063 µg/mL (≈ 0.0424 µM)
SMILES: CCCCCCCC(=O)N[C@H]1[C@H](O[C@@H]2c3ccc(c(Cl)c3)Oc3cc4cc(c3O)Oc3ccc(cc3Cl)C[C@H]3NC(=O)[C@H](N)c5ccc(O)c(c5)Oc5cc(O)cc(c5)[C@H](NC3=O)C(=O)N[C@H]4C(=O)N[C@H]3C(=O)N[C@@H]2C(=O)N[C@H](C(=O)O)c2cc(O)cc(O)c2-c2cc3ccc2O)O[C@H](CO)[C@@H](O)[C@@H]1O [Compound 14, r6,N-octyl-Glc Tei]
- MBC [1]: 0.063 µg/mL (≈ 0.0424 µM)
- MBC/MIC [1]: 4
- bacterial load reduced by [2]: 2 log CFUmL^−1
- cytotoxicity to HEK293T cells [3]: did not exhibit any observable toxicity
- MIC [5]: 0.25 µg/mL (≈ 0.168 µM)

— US11739122B2, “Glycopeptide antibiotic compounds, methods for producing the same, and uses thereof” (Academia Sinica, priority 2019, dated 2023)
